Assay results: ChEMBL document CHEMBL1201862, “PubChem BioAssay data set” (2004)
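Assay format: 96-well plates, 48-hour exposure. Abbreviation: GI50, concentration required for 50% inhibition of growth.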 Active and inactive are the calls of the source. No stated cut-off is given here; in the data, active = GI50 up to about 1.1 µM and inactive = higher.

Legend:
Assay in all cases: inhibition of tumour cell growth, NCI panel, 48 h
[1] = tested on: 786-0
[2] = tested on: A498
[3] = tested on: A549
[4] = tested on: ACHN
[5] = tested on: BT-549
[6] = tested on: CAKI-1
[7] = tested on: CCRF-CEM
[8] = tested on: COLO 205
[9] = tested on: DU-145
[10] = tested on: EKVX
[11] = tested on: HCC 2998
[12] = tested on: HCT-116
[13] = tested on: HCT-15
[14] = tested on: HL-60
[15] = tested on: HOP-62
[16] = tested on: HOP-92
[17] = tested on: HT-29
[18] = tested on: Hs-578T
[19] = tested on: IGROV-1
[20] = tested on: K562
[21] = tested on: KM12
[22] = tested on: LOX IMVI
[23] = tested on: M14
[24] = tested on: MCF7
[25] = tested on: MDA-MB-231
[26] = tested on: MDA-MB-435
[27] = tested on: MDA-N
[28] = tested on: MOLT-4
[29] = tested on: Malme-3M
[30] = tested on: NCI-H226
[31] = tested on: NCI-H23
[32] = tested on: NCI-H460
[33] = tested on: NCI-H522
[34] = tested on: NCI/ADR-RES
[35] = tested on: OVCAR-3
[36] = tested on: OVCAR-4
[37] = tested on: OVCAR-5
[38] = tested on: OVCAR-8
[39] = tested on: PC-3
[40] = tested on: RPMI-8226
[41] = tested on: RXF 393
[42] = tested on: SF-268
[43] = tested on: SF-295
[44] = tested on: SF-539
[45] = tested on: SK-MEL-28
[46] = tested on: SK-MEL-2
[47] = tested on: SK-MEL-5
[48] = tested on: SK-OV-3
[49] = tested on: SN12C
[50] = tested on: SNB-19
[51] = tested on: SNB-75
[52] = tested on: SR
[53] = tested on: SW-620
[54] = tested on: T47D
[55] = tested on: TK-10
[56] = tested on: U-251
[57] = tested on: UACC-257
[58] = tested on: UACC-62
[59] = tested on: UO-31

What does the source list for `O=c1c2cc(I)ccc2nc(Sc2ccc([N+](=O)[O-])cc2[N+](=O)[O-])n1Cc1ccccc1`?
GI50 [1]: 815 nM (active); GI50 [2]: 7030 nM (inactive); GI50 [3]: 15200 nM (inactive); GI50 [4]: 8730 nM (inactive); GI50 [5]: 1290 nM (inactive); GI50 [6]: 2640 nM (inactive); GI50 [7]: 159 nM (active); GI50 [8]: 5140 nM (inactive); GI50 [9]: 2960 nM (inactive); GI50 [10]: 3550 nM (inactive); GI50 [11]: 2920 nM (inactive); GI50 [12]: 1260 nM (inactive); GI50 [13]: 1610 nM; GI50 [14]: 1830 nM (inactive); GI50 [15]: 2930 nM (inactive); GI50 [16]: 2330 nM (inactive); GI50 [17]: 3240 nM (inactive); GI50 [18]: 4780 nM (inactive); GI50 [19]: 2020 nM (inactive); GI50 [20]: 1780 nM (inactive); GI50 [21]: 3320 nM (inactive); GI50 [22]: 1460 nM (inactive); GI50 [23]: 1940 nM (inactive); GI50 [24]: 2020 nM (inactive); GI50 [25]: 5220 nM (inactive); GI50 [26]: 1820 nM (inactive); GI50 [27]: 1520 nM (inactive); GI50 [28]: 1390 nM (inactive); GI50 [29]: 5510 nM (inactive); GI50 [30]: 2740 nM (inactive); GI50 [31]: 3020 nM (inactive); GI50 [32]: 4240 nM (inactive); GI50 [33]: 1040 nM (active); GI50 [34]: 1830 nM (inactive); GI50 [35]: 1900 nM (inactive); GI50 [36]: 2490 nM (inactive); GI50 [37]: 9020 nM (inactive); GI50 [38]: 1600 nM (inactive); GI50 [39]: 2890 nM (inactive); GI50 [40]: 1740 nM (inactive); GI50 [41]: 2380 nM (inactive); GI50 [42]: 1600 nM (inactive); GI50 [43]: 5920 nM (inactive); GI50 [44]: 2250 nM (inactive); GI50 [45]: 7140 nM (inactive); GI50 [46]: 1850 nM (inactive); GI50 [47]: 3480 nM (inactive); GI50 [48]: 8130 nM (inactive); GI50 [49]: 1460 nM (inactive); GI50 [50]: 6650 nM (inactive); GI50 [51]: 3910 nM (inactive); GI50 [52]: 394 nM (active); GI50 [53]: 2470 nM (inactive); GI50 [54]: 1710 nM (inactive); GI50 [55]: 7590 nM (inactive); GI50 [56]: 3810 nM (inactive); GI50 [57]: 4650 nM (inactive); GI50 [58]: 2290 nM (inactive); GI50 [59]: 2260 nM (inactive)
